The subject of one data set is Candida tropicalis. Put plainly: Antifungal activity against Candida tropicalis MTCC-230 after 24 to 72 hrs by broth dilution method. It counts as functional. In general terms: Dilution methods test growth across graded concentrations, often in twofold steps.
Another data set has as its system Aspergillus niger. Nature of the data set: Antifungal activity against Aspergillus niger MTCC-281 after 24 to 72 hrs by broth dilution method. It counts as functional.
Another data set concerns Geotrichum. Put plainly: Antifungal activity against Geotrichum candidum MTCC-3993 after 24 to 72 hrs by broth dilution method. It counts as functional.
Another data set deals with Candida albicans. Put plainly: Antifungal activity against Candida albicans MTCC-227 after 24 to 72 hrs by broth dilution method. It counts as functional.
The test system of data set [1] is Staphylococcus aureus. Put plainly: Antibacterial activity against Staphylococcus aureus MTCC-740 after overnight incubation by two-fold broth dilution method.
The subject of another data set is Pseudomonas aeruginosa. Put plainly: Antibacterial activity against Pseudomonas aeruginosa MTCC-741 after overnight incubation by two-fold broth dilution method. It counts as functional.
Another data set relates to Shigella flexneri. Nature of the data set: Antibacterial activity against Shigella flexneri MTCC-1457 after overnight incubation by two-fold broth dilution method. It counts as functional.
Data set [2] is described as follows: Cytotoxicity against human HeLa cells assessed as cell survival at 200 uM up to 24 hrs by MTT assay. It counts as cell-based. The note with it: read-out: Survival. (Tetrazolium assays rely on reduction of a dye to a coloured formazan, in cell work by metabolically active cells.)
Data set [3] can be described thus: Cytotoxicity against human HeLa cells assessed as cell survival at 20 uM after 24 hrs by MTT assay. It counts as cell-based. The note with it: read-out: Survival.
Another data set concerns Escherichia coli. Put plainly: Antibacterial activity against Escherichia coli MTCC-119 after overnight incubation by two-fold broth dilution method. It counts as functional.
The subject of data set [4] is Staphylococcus aureus. The note with it: MTCC-740.

Values after ≈ are worked out from the molar mass of the structure shown. Active and inactive are the calls of the source.

What is called MIC is the smallest concentration in the dilution series that meets the test's criterion for growth inhibition. For `OC(Cn1cncn1)(Cn1cncn1)c1ccc(F)cc1F` [FLUCONAZOLE], the minimum inhibitory concentration (MIC) amounted to 23 µg/mL (≈ 75.1 µM) against Candida tropicalis, 45 µg/mL (≈ 147 µM) in the data set on Aspergillus niger, 10 µg/mL (≈ 32.7 µM) with Geotrichum and 20 µg/mL (≈ 65.3 µM) in the data set on Candida albicans.
`O=C(O)c1cn(C2CC2)c2cc(N3CCNCC3)c(F)cc2c1=O` [CIPROFLOXACIN]: the MIC turned out to be 1.6 µg/mL (≈ 4.83 µM) against Staphylococcus aureus [1], 0.7 µg/mL (≈ 2.11 µM) in the data set with Pseudomonas aeruginosa and 1.2 µg/mL (≈ 3.62 µM) against Shigella flexneri.
Regarding `O=C(c1cncnc1)c1cc(F)c(Cl)cc1O`, in data set [2], the viability at 24 h, 200 µM is 84%. Besides, in data set [3], the viability at 24 h, 20 µM was 98%. Besides, the MIC was 70 µg/mL (≈ 277 µM) against Pseudomonas aeruginosa; 50 µg/mL (≈ 198 µM) in the data set with Shigella flexneri; over 100 µg/mL against Escherichia coli; 46 µg/mL (≈ 182 µM) against Candida tropicalis; 48 µg/mL (≈ 190 µM) in the data set with Aspergillus niger; 15 µg/mL (≈ 59.4 µM) with Geotrichum. This molecule also displayed an MIC against Candida albicans of 46 µg/mL (≈ 182 µM). Further, in the data set with Staphylococcus aureus [4], the MIC entry was “inactive”.
In the case of `O=C(c1cncnc1)c1ccccc1O`, the minimal inhibitory concentration (MIC) against Pseudomonas aeruginosa is 66 µg/mL (≈ 330 µM); with Shigella flexneri, 58 µg/mL (≈ 290 µM); against Escherichia coli it was 64 µg/mL (≈ 320 µM); with Candida tropicalis, over 100 µg/mL; against Aspergillus niger, 70 µg/mL (≈ 350 µM); against Geotrichum, 48 µg/mL (≈ 240 µM). This molecule also displayed an MIC with Candida albicans of 34 µg/mL (≈ 170 µM). The MIC result in the data set on Staphylococcus aureus [4] is “inactive”.
Regarding `O=C(c1cncnc1)c1cc(Cl)ccc1O`, the MIC was 96 µg/mL (≈ 409 µM) in the data set with Pseudomonas aeruginosa; 74 µg/mL (≈ 315 µM) against Shigella flexneri; 68 µg/mL (≈ 290 µM) in the data set on Escherichia coli; over 100 µg/mL in the data set on Candida tropicalis; 50 µg/mL (≈ 213 µM) against Aspergillus niger; 28 µg/mL (≈ 119 µM) in the data set with Geotrichum. In the data set with Candida albicans, the MIC came out at 35 µg/mL (≈ 149 µM). Besides, the MIC entry in the data set on Staphylococcus aureus [4] is “inactive”.
As to `Cc1ccc(O)c(C(=O)c2cncnc2)c1`, the minimal inhibitory concentration (MIC) in the data set on Pseudomonas aeruginosa was 60 µg/mL (≈ 280 µM); in the data set with Shigella flexneri, 84 µg/mL (≈ 392 µM); against Escherichia coli, over 100 µg/mL; against Candida tropicalis it was 54 µg/mL (≈ 252 µM); against Aspergillus niger, 55 µg/mL (≈ 257 µM); in the data set on Geotrichum, 40 µg/mL (≈ 187 µM). For the same molecule, the MIC against Candida albicans was 70 µg/mL (≈ 327 µM). In the data set on Staphylococcus aureus [4], the MIC entry was “inactive”.
Take `O=C(c1cncnc1)c1cc(F)ccc1O`: the minimum inhibitory concentration (MIC) with Pseudomonas aeruginosa is over 100 µg/mL; with Shigella flexneri it was 78 µg/mL (≈ 357 µM); in the data set on Escherichia coli, over 100 µg/mL; against Candida tropicalis, 78 µg/mL (≈ 357 µM); with Aspergillus niger, over 100 µg/mL; with Geotrichum, 35 µg/mL (≈ 160 µM). Moreover, in the data set on Candida albicans, the minimal inhibitory concentration (MIC) was 28 µg/mL (≈ 128 µM). In the data set on Staphylococcus aureus [4], the MIC result is “inactive”.

Values taken from ChEMBL document CHEMBL2440055, “Unusual transformation of substituted-3-formylchromones to pyrimidine analogues: synthesis and antimicrobial activities of 5-(o-hydroxyaroyl)pyrimidines” (Bioorg Med Chem Lett, 2013).
